Data set [1] addresses T1, Bromodomain-containing protein 9 (Homo sapiens) (UniProt Q9H8M2).
T1 sequence (whole entry): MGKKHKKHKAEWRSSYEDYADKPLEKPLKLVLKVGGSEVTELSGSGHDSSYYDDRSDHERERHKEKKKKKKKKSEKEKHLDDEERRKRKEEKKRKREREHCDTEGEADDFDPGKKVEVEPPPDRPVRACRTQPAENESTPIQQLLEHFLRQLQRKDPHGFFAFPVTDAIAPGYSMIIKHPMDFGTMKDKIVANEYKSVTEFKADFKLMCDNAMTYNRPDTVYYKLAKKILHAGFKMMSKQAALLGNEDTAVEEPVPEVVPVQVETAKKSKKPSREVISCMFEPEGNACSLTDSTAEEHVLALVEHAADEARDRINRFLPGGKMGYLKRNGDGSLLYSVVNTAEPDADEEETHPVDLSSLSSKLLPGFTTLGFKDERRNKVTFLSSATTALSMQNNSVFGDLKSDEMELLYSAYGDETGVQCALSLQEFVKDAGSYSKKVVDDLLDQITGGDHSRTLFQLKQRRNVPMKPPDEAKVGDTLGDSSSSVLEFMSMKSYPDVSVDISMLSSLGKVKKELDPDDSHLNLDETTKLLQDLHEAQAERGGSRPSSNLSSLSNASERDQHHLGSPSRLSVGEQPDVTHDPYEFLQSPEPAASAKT
The data set can be described thus: Binding affinity of GST-tagged BRD9 domain (unknown origin) to histone H4Ac (1 to 21 residues) assessed as residual binding at 10 uM by alphascreen analysis relative to control. For orientation: Alpha assays give light when donor and acceptor beads are brought close together.

The target in data set [2] is T2, Bromodomain-containing protein 9 (Homo sapiens, UniProt Q9H8M2).
T2 sequence (Q9H8M2 whole entry): T1 sequence (whole entry)
In words: Inhibition of BRD9 (unknown origin) by alpha screen analysis.

The target in data set [3] is Bromodomain-containing protein 2 (Homo sapiens) (UniProt P25440). In words: Binding affinity of recombinant His-tagged BRD2-BD1 (unknown origin) to histone H4Ac (1 to 21 residues) K5/8/12/Ac-Biotin-OH assessed as residual binding at 10 uM incubated for 30 mins by alphascreen analysis relative to control.
For data set [4] the target is unchanged. In words: Binding affinity of recombinant His-tagged BRD2-BD2 (unknown origin) to histone H4Ac (1 to 21 residues) K5/8/12/Ac-Biotin-OH assessed as residual binding at 10 uM incubated for 30 mins by alphascreen analysis relative to control.
Data set [5] deals with Bromodomain-containing protein 3 (Homo sapiens) (UniProt Q15059). In words: Binding affinity of recombinant His-tagged BRD3-BD1 (unknown origin) to histone H4Ac (1 to 21 residues) K5/8/12/Ac-Biotin-OH assessed as residual binding at 10 uM incubated for 30 mins by alphascreen analysis relative to control.
Data set [6] has the same target. In words: Binding affinity of recombinant His-tagged BRD3-BD2 (unknown origin) to histone H4Ac (1 to 21 residues) K5/8/12/Ac-Biotin-OH assessed as residual binding at 10 uM incubated for 30 mins by alphascreen analysis relative to control.
Data set [7] addresses Bromodomain-containing protein 4 (Homo sapiens) (UniProt O60885). In words: Binding affinity of recombinant His-tagged BRD4-BD1 (unknown origin) to histone H4Ac (1 to 21 residues) K5/8/12/Ac-Biotin-OH assessed as residual binding at 10 uM incubated for 30 mins by alphascreen analysis relative to control.
Data set [8] has the same target. In words: Binding affinity of recombinant His-tagged BRD4-BD2 (unknown origin) to histone H4Ac (1 to 21 residues) K5/8/12/Ac-Biotin-OH assessed as residual binding at 10 uM incubated for 30 mins by alphascreen analysis relative to control.
In data set [9] the target is Bromodomain testis-specific protein (Homo sapiens) (UniProt Q58F21). In words: Binding affinity of recombinant His-tagged BRDT-BD1 (unknown origin) to histone H4Ac (1 to 21 residues) K5/8/12/Ac-Biotin-OH assessed as residual binding at 10 uM incubated for 30 mins by alphascreen analysis relative to control.
Data set [10] has as its target Bromodomain adjacent to zinc finger domain protein 2B (Homo sapiens) (UniProt Q9UIF8). The data set can be described thus: Binding affinity of recombinant His-tagged BAZ2B (unknown origin) to histone H3 (1 to 21 residues) K9/14Ac-Biotin-OH assessed as residual binding at 10 uM incubated for 30 mins by alphascreen analysis relative to control.
Data set [11] concerns the target CREB-binding protein (Homo sapiens) (UniProt Q92793). In words: Binding affinity of recombinant His-tagged CREBBP (unknown origin) to histone H4Ac (1 to 21 residues) K5/8/12/Ac-Biotin-OH assessed as residual binding at 10 uM incubated for 30 mins by alphascreen analysis relative to control.
In another data set the test system is Jurkat. In words: Cytotoxicity against human Jurkat cells assessed as cell viability measured after 24 hrs by MTT assay. Format: functional, cell-based.
Another data set has as its system MCF7. In words: Cytotoxicity against human MCF7 cells assessed as cell viability measured after 24 hrs by MTT assay. Format: functional, cell-based. As to conditions: MCF7, 24 h. In general terms: Tetrazolium assays rely on reduction of a dye to a coloured formazan, in cell work by metabolically active cells.
For the next data set, the system named is A-375. In words: Cytotoxicity against human A-375 cells assessed as cell viability measured after 24 hrs by MTT assay. Format: functional, cell-based. The note with it: A-375, 24 h.
The next data set relates to Caco-2. In words: Cytotoxicity against human Caco-2 cells assessed as cell viability measured after 24 hrs by MTT assay. In kind it is functional, cell-based. The note with it: Caco-2, 24 h.
The subject of the next data set is HaCaT. In words: Cytotoxicity against human HaCaT cells assessed as cell viability measured after 24 hrs by MTT assay. Format: functional, cell-based.
Data set [12] can be described thus: Cytotoxicity against human erythrocytes assessed as cell viability measured after 24 hrs by MTT assay. In kind it is toxicity, cell-based, Erythrocyte.

The source of these data is ChEMBL document CHEMBL5331094, “Identification of 2,4,5-trisubstituted-2,4-dihydro-3H-1,2,4-triazol-3-one-based small molecules as selective BRD9 binders” (Eur J Med Chem, 2023).

Each structure is given as a SMILES string. A value given as a limit tells only on which side of the number the result lay.

Bromodomain adjacent to zinc finger domain protein 2B (Homo sapiens), sequence (Q9UIF8 whole entry, the tested form may be a part): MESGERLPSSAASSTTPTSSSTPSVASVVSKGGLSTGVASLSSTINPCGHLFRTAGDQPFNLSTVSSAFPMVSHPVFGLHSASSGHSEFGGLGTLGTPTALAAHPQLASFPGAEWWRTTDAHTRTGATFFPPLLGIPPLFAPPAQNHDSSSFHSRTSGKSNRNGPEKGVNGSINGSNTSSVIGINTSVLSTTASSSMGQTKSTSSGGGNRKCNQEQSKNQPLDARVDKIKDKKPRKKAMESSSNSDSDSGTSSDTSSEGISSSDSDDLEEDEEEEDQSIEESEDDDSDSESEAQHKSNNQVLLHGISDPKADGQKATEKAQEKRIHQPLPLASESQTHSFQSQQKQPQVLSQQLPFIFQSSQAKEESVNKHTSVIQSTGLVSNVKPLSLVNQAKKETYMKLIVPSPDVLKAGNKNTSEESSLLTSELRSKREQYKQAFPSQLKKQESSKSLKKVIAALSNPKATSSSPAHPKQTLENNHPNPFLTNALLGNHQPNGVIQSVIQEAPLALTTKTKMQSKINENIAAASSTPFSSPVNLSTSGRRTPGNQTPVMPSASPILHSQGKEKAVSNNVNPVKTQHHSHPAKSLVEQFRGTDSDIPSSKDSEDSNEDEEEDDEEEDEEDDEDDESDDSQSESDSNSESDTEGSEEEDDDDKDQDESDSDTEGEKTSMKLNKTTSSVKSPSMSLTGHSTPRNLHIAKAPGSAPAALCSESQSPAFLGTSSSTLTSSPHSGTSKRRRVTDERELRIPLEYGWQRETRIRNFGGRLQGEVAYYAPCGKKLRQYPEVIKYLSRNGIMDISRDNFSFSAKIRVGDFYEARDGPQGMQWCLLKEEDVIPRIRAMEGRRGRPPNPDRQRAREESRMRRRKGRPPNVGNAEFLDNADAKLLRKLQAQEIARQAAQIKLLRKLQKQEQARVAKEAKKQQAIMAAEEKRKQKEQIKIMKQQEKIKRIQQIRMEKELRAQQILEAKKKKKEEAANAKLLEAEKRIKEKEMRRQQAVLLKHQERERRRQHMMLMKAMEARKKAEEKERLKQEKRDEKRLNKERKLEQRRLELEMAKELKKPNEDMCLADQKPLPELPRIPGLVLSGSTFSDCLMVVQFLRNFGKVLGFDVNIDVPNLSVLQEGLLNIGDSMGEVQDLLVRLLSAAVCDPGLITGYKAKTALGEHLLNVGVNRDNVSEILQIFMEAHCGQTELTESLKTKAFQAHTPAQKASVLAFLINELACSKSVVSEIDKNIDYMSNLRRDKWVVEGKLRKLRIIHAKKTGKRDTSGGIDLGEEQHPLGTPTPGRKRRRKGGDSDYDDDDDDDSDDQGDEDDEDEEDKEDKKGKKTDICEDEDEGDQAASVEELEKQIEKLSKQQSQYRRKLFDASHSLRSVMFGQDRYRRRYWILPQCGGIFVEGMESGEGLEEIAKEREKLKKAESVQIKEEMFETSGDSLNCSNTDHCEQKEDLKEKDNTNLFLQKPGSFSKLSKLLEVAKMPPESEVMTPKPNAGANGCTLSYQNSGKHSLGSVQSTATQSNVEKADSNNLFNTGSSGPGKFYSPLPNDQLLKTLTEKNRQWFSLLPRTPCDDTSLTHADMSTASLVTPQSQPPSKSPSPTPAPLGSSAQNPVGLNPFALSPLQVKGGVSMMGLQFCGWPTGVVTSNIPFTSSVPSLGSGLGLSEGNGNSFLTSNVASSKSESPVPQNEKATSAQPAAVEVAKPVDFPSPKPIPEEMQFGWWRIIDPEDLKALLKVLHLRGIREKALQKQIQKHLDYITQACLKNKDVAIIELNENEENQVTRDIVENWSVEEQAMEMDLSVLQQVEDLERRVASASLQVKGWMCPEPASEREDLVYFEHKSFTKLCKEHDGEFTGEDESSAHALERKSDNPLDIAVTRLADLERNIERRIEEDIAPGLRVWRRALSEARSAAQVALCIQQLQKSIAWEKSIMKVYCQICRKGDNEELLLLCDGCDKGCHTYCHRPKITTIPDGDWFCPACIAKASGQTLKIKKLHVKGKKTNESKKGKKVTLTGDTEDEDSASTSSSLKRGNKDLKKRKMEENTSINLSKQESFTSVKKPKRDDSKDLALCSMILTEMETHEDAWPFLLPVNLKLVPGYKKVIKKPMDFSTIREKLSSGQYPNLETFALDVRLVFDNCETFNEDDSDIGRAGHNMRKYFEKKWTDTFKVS
Bromodomain-containing protein 2 (Homo sapiens), sequence (P25440 whole entry, looked up, the tested form may be a part): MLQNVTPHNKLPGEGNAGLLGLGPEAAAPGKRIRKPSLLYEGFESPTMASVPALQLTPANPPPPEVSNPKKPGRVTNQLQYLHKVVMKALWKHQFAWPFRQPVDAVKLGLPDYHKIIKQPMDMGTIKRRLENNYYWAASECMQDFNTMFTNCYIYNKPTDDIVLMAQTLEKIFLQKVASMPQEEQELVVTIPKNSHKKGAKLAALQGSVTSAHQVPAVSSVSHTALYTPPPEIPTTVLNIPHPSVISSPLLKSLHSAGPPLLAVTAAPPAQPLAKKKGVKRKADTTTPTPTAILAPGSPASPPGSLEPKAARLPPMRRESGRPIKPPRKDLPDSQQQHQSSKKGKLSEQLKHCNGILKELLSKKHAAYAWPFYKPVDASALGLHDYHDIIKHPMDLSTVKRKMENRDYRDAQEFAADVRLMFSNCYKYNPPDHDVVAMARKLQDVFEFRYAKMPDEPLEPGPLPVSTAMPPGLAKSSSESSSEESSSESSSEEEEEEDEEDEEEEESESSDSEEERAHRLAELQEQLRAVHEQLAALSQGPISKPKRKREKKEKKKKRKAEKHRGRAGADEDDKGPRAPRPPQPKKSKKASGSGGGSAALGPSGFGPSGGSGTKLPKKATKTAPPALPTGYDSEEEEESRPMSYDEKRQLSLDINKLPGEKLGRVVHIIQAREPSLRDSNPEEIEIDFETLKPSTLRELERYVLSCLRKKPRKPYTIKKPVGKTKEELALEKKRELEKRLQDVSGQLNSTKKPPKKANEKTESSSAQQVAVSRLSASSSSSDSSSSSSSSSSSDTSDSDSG
Bromodomain-containing protein 3 (Homo sapiens), sequence (Q15059 2-726 limits assumed): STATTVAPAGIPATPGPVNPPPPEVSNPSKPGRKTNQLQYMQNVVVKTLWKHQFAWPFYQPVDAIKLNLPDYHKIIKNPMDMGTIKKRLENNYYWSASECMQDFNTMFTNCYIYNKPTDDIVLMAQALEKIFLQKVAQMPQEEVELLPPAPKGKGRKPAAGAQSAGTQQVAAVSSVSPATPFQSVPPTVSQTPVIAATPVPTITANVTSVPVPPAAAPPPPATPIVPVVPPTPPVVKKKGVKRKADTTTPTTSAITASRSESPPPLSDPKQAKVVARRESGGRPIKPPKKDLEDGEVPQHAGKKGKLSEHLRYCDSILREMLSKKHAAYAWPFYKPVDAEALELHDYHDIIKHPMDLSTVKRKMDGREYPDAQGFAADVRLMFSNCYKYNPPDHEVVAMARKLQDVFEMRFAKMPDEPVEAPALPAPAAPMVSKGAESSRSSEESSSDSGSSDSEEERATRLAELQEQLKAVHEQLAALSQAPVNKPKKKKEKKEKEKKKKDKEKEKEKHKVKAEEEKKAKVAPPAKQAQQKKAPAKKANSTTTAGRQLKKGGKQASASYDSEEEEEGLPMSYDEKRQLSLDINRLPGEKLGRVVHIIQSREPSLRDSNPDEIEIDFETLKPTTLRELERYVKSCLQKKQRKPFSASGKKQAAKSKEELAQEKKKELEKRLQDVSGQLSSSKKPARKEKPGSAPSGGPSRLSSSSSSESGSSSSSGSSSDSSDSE

For the molecule `CCc1nn(C)c(=O)n1-c1cccc(C(F)(F)F)c1`, the Activity in data set [1] stood at 76.5%.
Same read-out and setting: next, `CCc1ccc(-n2c(CC)n[nH]c2=O)cc1`: 97.1%; `Cc1nn(C)c(=O)n1C1CCCCC1`: 77.9%; `Cc1cccc(-n2c(C)n[nH]c2=O)c1`: greater than 100%.
Same read-out and setting: the result for `CCc1n[nH]c(=O)n1-c1ccc2c(c1)OCO2` reads 84.6%; that for `COc1ccc(-n2c(C)nnc2O)cc1OC`, 73.6%; that for `CCc1n[nH]c(=O)n1-c1ccc(OC)c(OC)c1`, 96.9%.
As to `Cc1n[nH]c(=O)n1-c1ccc(F)c(C(F)(F)F)c1`, the Activity in [1] stood at 97.8%.
What is called IC50 is the point on the concentration scale where inhibition reaches its midpoint. Regarding `CCn1nc(C)n(-c2ccc(F)c(Cl)c2)c1=O`, the Activity in data set [1] was 41.2%; in data set [3], 98.2%; in data set [4], greater than 100%; in data set [5] it was greater than 100%; in data set [6], 93.3%; in data set [7], 99%. Further, the Activity in data set [8] was greater than 100%; in data set [9], 98.3%; in data set [10] it was greater than 100%; in data set [11], greater than 100%. Further, the IC50 in [2] was 4.01 µM; in the data set on Jurkat, greater than 500 µM; in the data set with MCF7, greater than 500 µM; in the data set on A-375, 450 µM; in the data set on Caco-2, greater than 500 µM; with HaCaT, greater than 500 µM. In addition, the IC50 at 24 h in data set [12] is greater than 500 µM.
On to `COc1ccc(-n2c(C)nn(C)c2=O)cc1OC`, for which the Activity in [1] is 28.1%; in [3], 96.5%; in data set [4] it was greater than 100%; in data set [5], greater than 100%; in [6], greater than 100%; in [7] it was greater than 100%. Also, the Activity in data set [8] was 94.7%; in data set [9], greater than 100%; in data set [10], greater than 100%; in data set [11], 96.3%. In addition, the IC50 in data set [2] is 0.35 µM; in the data set with Jurkat it was 110 µM; with MCF7, greater than 500 µM; in the data set with A-375, 450 µM; with Caco-2, 300 µM; in the data set with HaCaT, greater than 500 µM. Also, the IC50 at 24 h in data set [12] was greater than 500 µM.
For the molecule `CCc1nn(C)c(=O)n1-c1ccc(F)c(Cl)c1`, the Activity in [1] was 24.3%; in data set [3] it was greater than 100%; in data set [4] it was greater than 100%; in data set [5] it was greater than 100%; in [6] it was 98.3%; in data set [7], 99.2%. The Activity in data set [8] was greater than 100%; in data set [9] it was 98.2%; in [10], greater than 100%; in [11], greater than 100%. Moreover, the IC50 in [2] is 1.86 µM; with Jurkat, 225 µM; in the data set on MCF7 it was greater than 500 µM; with A-375 it was 500 µM; with Caco-2, greater than 500 µM; in the data set on HaCaT, greater than 500 µM. Besides, the IC50 at 24 h in [12] is greater than 500 µM.
As for `Cc1nn(C)c(=O)n1-c1ccc(F)c(C(F)(F)F)c1`, the Activity in data set [1] stood at 85.3%.
Regarding `CCc1nn(CC)c(=O)n1-c1cccc(C(F)(F)F)c1`, the Activity was 39.4% in data set [1]; 99% in data set [3]; greater than 100% in [4]; greater than 100% in [5]; 97.4% in data set [6]; 97.7% in data set [7]. The Activity is greater than 100% in [8], 98.3% in data set [9], greater than 100% in data set [10] and greater than 100% in data set [11]. Also, the IC50 in data set [2] was 2.49 µM; with Jurkat, 270 µM; in the data set on MCF7 it was 490 µM; in the data set with A-375, greater than 500 µM; with Caco-2, greater than 500 µM; in the data set with HaCaT, greater than 500 µM. The IC50 at 24 h in data set [12] was greater than 500 µM.
Regarding `CCc1nn(C)c(=O)n1-c1ccc(OC)c(OC)c1`, the Activity was 38.1% in data set [1]; greater than 100% in [3]; 96.7% in data set [4]; 97.3% in data set [5]; 97.7% in [6]; greater than 100% in [7]. Also, the Activity in data set [8] is 89.4%; in [9], 95.6%; in [10], greater than 100%; in [11] it was greater than 100%. The IC50 was 4.13 µM in data set [2]; 420 µM with Jurkat; greater than 500 µM in the data set on MCF7; 480 µM in the data set on A-375; greater than 500 µM with Caco-2; greater than 500 µM in the data set with HaCaT. Also, the IC50 at 24 h in data set [12] was greater than 500 µM.
For `CCn1nc(C)n(-c2ccc(OC)c(OC)c2)c1=O`, the Activity in data set [1] is 50.8%; in [3], greater than 100%; in data set [4] it was greater than 100%; in data set [5], 97.8%; in [6] it was greater than 100%; in data set [7], 99.2%. The Activity was greater than 100% in data set [8], 97.9% in [9], greater than 100% in data set [10] and greater than 100% in data set [11]. In addition, the IC50 is 7.62 µM in [2]; 315 µM in the data set on Jurkat; 360 µM in the data set on MCF7; 400 µM in the data set on A-375; 300 µM in the data set with Caco-2; greater than 500 µM with HaCaT. Further, in data set [12], the IC50 at 24 h is greater than 500 µM.
For `CCc1n[nH]c(=O)n1-c1ccc(F)c(C)c1`, in [1], the Activity is 94.9%.
Regarding `CCc1n[nH]c(=O)n1-c1ccc(C)c(Cl)c1`, the Activity in data set [1] was 97.5%.
With `Cc1nn(C)c(=O)n1-c1ccc(C(C)(C)C)cc1`, the Activity in data set [1] came out at 95.7%.
As to `Cc1cc(-n2c(C)n[nH]c2=O)ccc1F`, the Activity in data set [1] is greater than 100%.
On the same count and under the same terms, the result for `CCc1nn(CC)c(=O)n1-c1ccc(OC)c(OC)c1` reads greater than 100%.
For the molecule `CCc1n[nH]c(=O)n1-c1cccc(C(F)(F)F)c1`, the Activity in data set [1] came to 96.1%.
Still for that read-out and setting: next, `Cc1ccc(-n2c(C)n[nH]c2=O)cc1`: greater than 100%; `Cc1nnc(O)n1-c1ccc(C(C)(C)C)cc1`: greater than 100%; `CCc1nn(CC)c(=O)n1-c1ccc2c(c1)OCO2`: 91.2%.
Still for that read-out and setting: next, `CCc1nn(C)c(=O)n1-c1ccc(C)c(C)c1`: 85.1%.
Take `CCc1nn(C)c(=O)n1C1CCCCC1`: the Activity in data set [1] stood at 64.3%.
Still for that read-out and setting: next, `Cc1cccc(-n2c(C)nn(C)c2=O)c1`: 86.7%; `CCc1n[nH]c(=O)n1-c1ccc(C)c(C)c1`: 97.2%.
Same read-out and setting: the result for `CCc1nn(CC)c(=O)n1-c1ccc(F)c(Cl)c1` reads 86.6%; that for `CCc1n[nH]c(=O)n1-c1ccc(Cl)c(F)c1`, 91.8%.
